Source: patent publication US20240360165A1, “INHIBITORS OF CYCLIN DEPENDENT KINASE 7 (CDK7)” (Syros Pharmaceuticals, Inc., priority 2016, published 2024)
Where two headings read alike, the source gives them in different places.

Legend:
[1] = molecular target: CDK9/Cyclin T1 complex (Homo sapiens, UniProt P50750); test: CDK9 inhibition assay (Caliper/LabChip EZ Reader kinase assay); type: biochemical; conditions: Table 1, CDK9/Cyclin T1 8 nM, ATP 2 mM, 15 min at 27° C.
Method in brief: (§1)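 Activity read as fluorescent peptide conversion on a LabChip EZ Reader. For CDK2/Cyclin E1 (0.5 nM), substrate was 5-FAM-CDK7tide (2 μM) with 2 mM MgCl2; for CDK9/Cyclin T1 (8 nM), 5-FAM-CDK9tide (2 μM) with 10 mM MgCl2.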

[2] = molecular target: CDK7/Cyclin H/MAT1 complex (Homo sapiens, UniProt P50613); test: CDK7 inhibition assay (Caliper/LabChip EZ Reader kinase assay); type: biochemical; conditions: Table 1, CDK7/Cyclin H/MAT1 6 nM, ATP 2 mM, 35 min at 27° C.
Method in brief: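 A Perkin Elmer Caliper/LabChip EZ Reader (Waltham, MA) platform served as the basis for this CDK7 kinase inhibition assay. The work was carried out by Biortus Biosciences, located in Jiangyin, Jiangsu Province, P.R. of China. Each CDK studied had its own kinase assay, and compounds were evaluated for their ability to block CDK7 activity.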

[3] = molecular target: CDK2/Cyclin E1 complex (Homo sapiens, UniProt P24941); test: CDK2 inhibition assay (Caliper/LabChip EZ Reader kinase assay); type: biochemical; conditions: Table 1, CDK2/Cyclin E1 0.5 nM, ATP 2 mM, 35 min at 27° C.
Method in brief: as §1

[4] = system: HCC70 cells; test: Inhibition of proliferation of HCC70 cells (CyQUANT Direct Cell Proliferation Assay, 72 hour); type: cell-based, human; conditions: read-out: Inhibition of Proliferation of HCC70 Cells (calculated IC50)
Experimental: HCC70 cells are a cell line derived from human triple negative breast cancer. […] Known CDK inhibitors dinaciclib or N-((1S,3R)-3-((5-chloro-4-(1H-indol-3-yl) pyrimidin-2-yl)amino)cyclohexyl)-5-((E)-4-(dimethylamino)but-2-enamido)picolinamide and triptolide were used as positive controls. […] The cells were cultured at 37° C. in a humidified chamber in the presence of 5% CO2. Proliferation assays were conducted over a 72 hour time period. CyQUANT® Direct Cell Proliferation Assay (Life Technologies, Chicago, IL USA) was used to assess the anti-proliferative effects of the compounds following manufacturer's directions and utilizing the reagents supplied with the CyQUANT® Direct Cell kit.

[5] = molecular target: T1, CDK12 (aa686-1082)/Cyclin K complex (Homo sapiens, UniProt Q9NYV4); test: CDK12 inhibition assay (Caliper/LabChip EZ Reader kinase assay); type: biochemical; conditions: Table 1, CDK12 (aa686-1082)/Cyclin K 50 nM, ATP 2 mM, 3 hr at 27° C.
T1 construct: CDK12 (aa686-1082)/Cyclin K complex
T1 sequence (Q9NYV4 686-1082, species assumed): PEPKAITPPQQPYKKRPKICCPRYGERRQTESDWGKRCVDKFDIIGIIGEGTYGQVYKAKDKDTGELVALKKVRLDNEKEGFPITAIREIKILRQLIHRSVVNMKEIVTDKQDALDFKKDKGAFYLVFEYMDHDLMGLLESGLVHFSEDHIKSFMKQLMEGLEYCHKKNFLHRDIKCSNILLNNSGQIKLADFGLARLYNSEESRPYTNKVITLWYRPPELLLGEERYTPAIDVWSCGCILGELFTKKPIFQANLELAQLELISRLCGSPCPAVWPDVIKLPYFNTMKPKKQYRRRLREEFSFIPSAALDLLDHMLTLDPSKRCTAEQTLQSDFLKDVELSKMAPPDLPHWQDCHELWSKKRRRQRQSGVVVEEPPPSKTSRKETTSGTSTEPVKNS
T1 sequence (O75909 whole entry partner, species assumed, the tested form may be a part): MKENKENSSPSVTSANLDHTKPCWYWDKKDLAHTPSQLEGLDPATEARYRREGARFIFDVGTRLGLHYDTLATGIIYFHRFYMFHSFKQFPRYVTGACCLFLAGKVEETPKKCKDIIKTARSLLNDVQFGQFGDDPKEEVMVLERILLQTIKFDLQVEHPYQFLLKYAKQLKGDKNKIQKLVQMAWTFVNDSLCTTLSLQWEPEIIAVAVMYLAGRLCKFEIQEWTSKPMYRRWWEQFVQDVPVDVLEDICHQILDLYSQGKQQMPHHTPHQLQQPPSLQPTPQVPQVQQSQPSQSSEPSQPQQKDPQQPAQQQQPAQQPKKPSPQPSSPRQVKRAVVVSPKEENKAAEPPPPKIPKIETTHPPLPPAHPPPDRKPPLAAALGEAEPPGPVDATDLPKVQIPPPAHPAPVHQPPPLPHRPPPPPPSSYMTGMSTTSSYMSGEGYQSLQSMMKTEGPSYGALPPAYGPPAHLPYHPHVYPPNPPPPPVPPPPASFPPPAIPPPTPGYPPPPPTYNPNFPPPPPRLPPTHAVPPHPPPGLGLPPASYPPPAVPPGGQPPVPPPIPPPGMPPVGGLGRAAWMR

Sequence of CDK7/Cyclin H/MAT1 complex (P50613 whole entry, species assumed): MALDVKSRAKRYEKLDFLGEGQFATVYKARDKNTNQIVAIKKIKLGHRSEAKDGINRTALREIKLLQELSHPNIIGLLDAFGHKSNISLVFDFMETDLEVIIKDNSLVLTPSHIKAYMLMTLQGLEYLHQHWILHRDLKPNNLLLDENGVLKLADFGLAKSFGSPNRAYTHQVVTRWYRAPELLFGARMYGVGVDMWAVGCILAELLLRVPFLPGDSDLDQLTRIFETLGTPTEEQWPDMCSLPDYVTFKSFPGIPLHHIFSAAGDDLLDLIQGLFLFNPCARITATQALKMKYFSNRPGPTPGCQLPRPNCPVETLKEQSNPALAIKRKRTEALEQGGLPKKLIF
Sequence of CDK7/Cyclin H/MAT1 complex (P51946 whole entry partner, species assumed): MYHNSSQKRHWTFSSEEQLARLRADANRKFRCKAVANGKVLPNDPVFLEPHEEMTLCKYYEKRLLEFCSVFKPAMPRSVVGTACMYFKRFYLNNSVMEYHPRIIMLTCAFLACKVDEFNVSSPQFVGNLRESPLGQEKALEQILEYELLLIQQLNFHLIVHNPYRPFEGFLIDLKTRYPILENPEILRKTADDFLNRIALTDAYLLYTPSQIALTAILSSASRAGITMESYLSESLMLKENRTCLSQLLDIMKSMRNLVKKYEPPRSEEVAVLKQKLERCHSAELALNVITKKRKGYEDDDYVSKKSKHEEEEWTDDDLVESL
Sequence of CDK7/Cyclin H/MAT1 complex (P51948 whole entry partner, species assumed): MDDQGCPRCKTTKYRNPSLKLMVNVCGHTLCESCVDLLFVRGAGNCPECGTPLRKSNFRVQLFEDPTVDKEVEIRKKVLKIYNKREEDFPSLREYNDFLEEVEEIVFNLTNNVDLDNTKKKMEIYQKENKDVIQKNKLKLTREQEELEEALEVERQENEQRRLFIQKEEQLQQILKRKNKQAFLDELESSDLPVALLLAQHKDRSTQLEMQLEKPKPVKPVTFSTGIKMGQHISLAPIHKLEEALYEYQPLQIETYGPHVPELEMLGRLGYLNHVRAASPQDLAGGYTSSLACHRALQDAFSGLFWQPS
Sequence of CDK9/Cyclin T1 complex (P50750 whole entry, species assumed): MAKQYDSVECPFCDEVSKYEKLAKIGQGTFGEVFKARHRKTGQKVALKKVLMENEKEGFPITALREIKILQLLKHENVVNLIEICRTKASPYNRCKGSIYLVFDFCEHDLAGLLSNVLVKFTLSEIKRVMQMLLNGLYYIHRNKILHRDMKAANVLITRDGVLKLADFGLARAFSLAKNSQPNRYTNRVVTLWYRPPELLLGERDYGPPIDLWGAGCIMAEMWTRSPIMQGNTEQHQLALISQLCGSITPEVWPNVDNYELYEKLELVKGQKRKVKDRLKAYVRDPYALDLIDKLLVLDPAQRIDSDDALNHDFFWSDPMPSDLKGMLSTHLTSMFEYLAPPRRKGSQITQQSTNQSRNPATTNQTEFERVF
Sequence of CDK9/Cyclin T1 complex (O60563 whole entry partner, species assumed): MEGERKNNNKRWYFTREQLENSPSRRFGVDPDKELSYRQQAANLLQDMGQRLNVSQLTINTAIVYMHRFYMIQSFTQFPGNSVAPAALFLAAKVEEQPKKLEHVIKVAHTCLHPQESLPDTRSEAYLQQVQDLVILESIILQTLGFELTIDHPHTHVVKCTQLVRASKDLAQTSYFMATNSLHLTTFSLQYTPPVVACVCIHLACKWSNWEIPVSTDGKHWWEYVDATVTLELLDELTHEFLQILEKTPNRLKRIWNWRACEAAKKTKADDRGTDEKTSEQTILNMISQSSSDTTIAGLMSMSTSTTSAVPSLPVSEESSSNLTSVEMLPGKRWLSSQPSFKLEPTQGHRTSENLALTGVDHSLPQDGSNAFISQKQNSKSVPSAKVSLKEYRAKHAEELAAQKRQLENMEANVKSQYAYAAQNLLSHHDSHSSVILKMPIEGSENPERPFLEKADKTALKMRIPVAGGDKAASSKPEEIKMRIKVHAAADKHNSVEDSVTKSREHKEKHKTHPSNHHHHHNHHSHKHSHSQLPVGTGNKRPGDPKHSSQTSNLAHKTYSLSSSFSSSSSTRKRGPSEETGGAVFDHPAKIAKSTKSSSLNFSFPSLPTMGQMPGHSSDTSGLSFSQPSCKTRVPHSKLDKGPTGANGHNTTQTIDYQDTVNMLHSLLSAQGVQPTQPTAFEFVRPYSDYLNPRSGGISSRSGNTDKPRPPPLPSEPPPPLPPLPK

| IC50 [1] [nM] | IC50 [2] [nM] | IC50 [3] [nM] | IC50 [5] [nM] | IC50 ([1]; listed as 128) [nM] | IC50 ([2]; listed as 128) [nM] | IC50 ([3]; listed as 128) [nM] | IC50 ([5]; listed as 128) [nM] | SMILES | IC50 [4] [nM] | IC50 ([4]; Homo sapiens, HCC70, 72 h) [nM] |
| --- | --- | --- | --- | --- | --- | --- | --- | --- | --- | --- |
| > 5000 | 20 to 200 | > 5000 | > 5000 |  |  |  |  | COCn1cc(-c2nc(N[C@H]3CCCNC3)ncc2C(F)(F)F)c2cccc(C#N)c21 [Compound 295] | 1000 to 5000 |  |
| > 5000 | 20 to 200 | > 5000 | > 5000 |  |  |  |  | Cn1cc(-c2nc(N[C@H]3CCCNC3)ncc2C(F)(F)F)c2cccc(S(C)(=O)=O)c21 [Compound 296] | 1000 to 5000 |  |
| > 5000 | 20 to 200 | > 5000 | 200 to 5000 |  |  |  |  | CC1(C)CC[C@H](Nc2ncc(C(F)(F)F)c(-c3c[nH]c4cc(C#N)ccc34)n2)CN1 [Compound 350, (S)-3-(2-((6,6-dimethylpiperidin-3-yl)amino)-5-(trifluoromethyl)pyrimidin-4-yl)-1H-indole-6-carbonitrile] |  | 100 to 1000 |
| > 5000 | 20 to 200 | > 5000 | > 5000 |  |  |  |  | CCP(=O)(CC)c1ccc2c(-c3nc(N[C@H]4CCCNC4)ncc3C(F)(F)F)c[nH]c2c1 [Compound 379] |  | 1000 to 5000 |
| 200 to 5000 | < 20 | 200 to 5000 | 200 to 5000 |  |  |  |  | N#Cc1ccc2c(-c3nc(N[C@@H]4CNCC[C@H]4F)ncc3C(F)(F)F)c[nH]c2c1 [Compound 351] |  | < 100 |
| > 5000 | 20 to 200 | > 5000 | > 5000 |  |  |  |  | N#Cc1ccc2c(-c3nc(N[C@H]4CCCNC4)ncc3OC(F)F)c[nH]c2c1 [Compound 301, 3-[5-(difluoromethoxy)-2-[[(3S)-3-piperidyl]amino]pyrimidin-4-yl]-1H-indole-6-carbonitrile] |  | 1000 to 5000 |
| > 5000 | 20 to 200 | > 5000 | 200 to 5000 |  |  |  |  | N#Cc1ccc2c(-c3nc(N[C@@H]4CNCC[C@H]4O)ncc3C(F)(F)F)c[nH]c2c1 [Compound 355] |  | 100 to 1000 |
| 200 to 5000 | < 20 | 200 to 5000 | 200 to 5000 |  |  |  |  | FC(F)(F)c1cnc(N[C@H]2CCCNC2)nc1-c1c[nH]c2cc(-c3cnccn3)ccc12 [Compound 328] | < 100 |  |
| 200 to 5000 | < 20 | 200 to 5000 | 200 to 5000 |  |  |  |  | Cc1c(-c2ccc3c(-c4nc(N[C@H]5CCCNC5)ncc4C(F)(F)F)c[nH]c3c2)c[nH]c(=O)c1C#N [Compound 311, 4-methyl-2-oxo-5-[3-[2-[[(3S)-3-piperidyl]amino]-5-(trifluoromethyl)pyrimidin-4-yl]-1H-indol-6-yl]-1H-pyridine-3-carbonitrile] |  | 1000 to 5000 |
| 200 to 5000 | 20 to 200 | > 5000 | 200 to 5000 |  |  |  |  | N#Cc1ccc2c(-c3nc(N[C@H]4CCCNC4)ncc3SC(F)F)c[nH]c2c1 [Compound 361, 3-[5-(difluoromethylsulfanyl)-2-[[(3S)-3-piperidyl]amino]pyrimidin-4-yl]-1H-indole-6-carbonitrile] |  | 100 to 1000 |
| > 5000 | < 20 | 200 to 5000 | 200 to 5000 |  |  |  |  | OCc1ncccc1-c1ccc2c(-c3nc(N[C@H]4CCCNC4)ncc3C(F)(F)F)c[nH]c2c1 [Compound 323] | 100 to 1000 |  |
| 200 to 5000 | < 20 | 200 to 5000 | 200 to 5000 |  |  |  |  | O=C(c1ccc2c(-c3nc(N[C@H]4CCCNC4)ncc3C(F)(F)F)c[nH]c2c1)N1C[C@@H](O)C(F)(F)C1 [Compound 349, [(4R)-3,3-difluoro-4-hydroxy-pyrrolidin-1-yl]-[3-[2-[[(3S)-3-piperidyl]amino]-5-(trifluoromethyl)pyrimidin-4-yl]-1H-indol-6-yl] methanone] |  | 100 to 1000 |
| > 5000 | 20 to 200 | > 5000 | 200 to 5000 |  |  |  |  | FC(F)(F)c1cnc(N[C@H]2CCCNC2)nc1-c1c[nH]c2cc(-c3ccnc4ccccc34)ccc12 [Compound 339] | 1000 to 5000 |  |
| > 5000 | 20 to 200 | > 5000 | 200 to 5000 |  |  |  |  | CO[C@H]1CCN(C(=O)c2ccc3c(-c4nc(N[C@H]5CCCNC5)ncc4C(F)(F)F)c[nH]c3c2)C1 [Compound 280] | 100 to 1000 |  |
| > 5000 | < 20 | 200 to 5000 | 200 to 5000 |  |  |  |  | CCN1CCC[C@H](Nc2ncc(C(F)(F)F)c(-c3c[nH]c4cc(S(C)(=O)=O)ccc34)n2)C1 [Compound 298] |  | 100 to 1000 |
| 200 to 5000 | < 20 | 200 to 5000 | 200 to 5000 |  |  |  |  | CNC(=O)c1ccc2c(-c3nc(N[C@H]4CCCNC4)ncc3C(F)(F)F)c[nH]c2n1 [Compound 297] |  | < 100 |
| 200 to 5000 | < 20 | 200 to 5000 | 200 to 5000 |  |  |  |  | NC(=O)c1cccc(-c2ccc3c(-c4nc(N[C@H]5CCCNC5)ncc4C(F)(F)F)c[nH]c3c2)c1 [Compound 314] | 100 to 1000 |  |
| 200 to 5000 | < 20 | 200 to 5000 | 200 to 5000 |  |  |  |  | CN(C)S(=O)(=O)c1cccc2c(-c3nc(NC4CCCNC4)ncc3C(F)(F)F)c[nH]c12 (centres unmarked) [Compound 371] |  | < 100 |
| > 5000 | < 20 | 200 to 5000 | 200 to 5000 |  |  |  |  | OCc1cccc(-c2ccc3c(-c4nc(N[C@H]5CCCNC5)ncc4C(F)(F)F)c[nH]c3c2)n1 [Compound 316] | 100 to 1000 |  |
| > 5000 | 200 to 5000 | > 5000 | > 5000 |  |  |  |  | Fc1cccc(-c2ccc3c(-c4nc(N[C@H]5CCCNC5)ncc4C(F)(F)F)c[nH]c3c2)c1 [Compound 345] |  | 1000 to 5000 |
| > 5000 | 20 to 200 | > 5000 | 200 to 5000 |  |  |  |  | CS(=O)(=O)c1ccc2c(-c3nc(N[C@H]4CCCN(C5CC5)C4)ncc3C(F)(F)F)c[nH]c2c1 [Compound 381, N-[(3S)-1-cyclopropyl-3-piperidyl]-4-(6-methylsulfonyl-1H-indol-3-yl)-5-(trifluoromethyl) pyrimidin-2-amine] |  | 1000 to 5000 |
| > 5000 | 20 to 200 | > 5000 | > 5000 |  |  |  |  | CCc1cnc(N[C@H]2CCCNC2)nc1-c1c[nH]c2c(F)c(C#N)ccc12 [Compound 360, 3-[5-ethyl-2-[[(3S)-3-piperidyl]amino]pyrimidin-4-yl]-7-fluoro-1H-indole-6-carbonitrile] |  | 1000 to 5000 |
| > 5000 | 20 to 200 | > 5000 | 200 to 5000 | > 5000 | > 5000 | > 5000 | > 5000 | N#Cc1ccc2c(-c3nc(N[C@@H]4CNC[C@@H](F)C4)ncc3C(F)(F)F)c[nH]c2c1 [Compound 368, 3-[2-[[(3S,5S)-5-fluoro-3-piperidyl]amino]-5-(trifluoromethyl)pyrimidin-4-yl]-1H-Indole-6-carbonitrile] |  | 1000 to 5000 |
| 200 to 5000 | < 20 | 200 to 5000 | 200 to 5000 |  |  |  |  | O=S(=O)(CF)c1ccc2c(-c3nc(N[C@H]4CCCNC4)ncc3C(F)(F)F)c[nH]c2c1 [Compound 365, 4-[6-(fluoromethylsulfonyl)-1H-indol-3-yl]-N-[(3S)-3-piperidyl]-5-(trifluoromethyl)pyrimidin-2-amine] |  | 100 to 1000 |
| > 5000 | 20 to 200 | 200 to 5000 | 200 to 5000 |  |  |  |  | CC1(C)CNC[C@@H](Nc2ncc(C(F)(F)F)c(-c3c[nH]c4cc(S(C)(=O)=O)ccc34)n2)C1 [Compound 376, N-[(3S)-5,5-dimethyl-3-piperidyl]-4-(6-methylsulfonyl-1H-indol-3-yl)-5-(trifluoromethyl) pyrimidin-2-amine] |  | 100 to 1000 |
| 200 to 5000 | < 20 | 200 to 5000 | 20 to 200 |  |  |  |  | FC(F)Sc1ccc2c(-c3nc(N[C@H]4CCCNC4)ncc3C(F)(F)F)c[nH]c2c1 [Compound 374, 4-[6-(difluoromethylsulfanyl)-1H-indol-3-yl]-N-[(3S)-3-piperidyl]-5-(trifluoromethyl) pyrimidin-2-amine] |  | < 100 |
